In patent US20100120690A1, “Polypeptides Having Antimicrobial Activity and Polynucleotides Encoding Same” (Novozymes Adenium Biotech A/S, priority 2005, published 2010):

Assays:
[1] = test system: Staphylococcus aureus, ATCC 29213; experiment: MIC, NCCLS/CLSI guidelines (Example 5), strain A; assay type: cell-based; conditions: average of two independent experiments
Summary of the method: (§1)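 Expressed, purified plectasin wild-type and variant peptides were tested for minimal inhibitory concentration under NCCLS/CLSI guidelines. Values are the mean of two independent experiments, scored relative to wild-type plectasin MIC: 0 >100%, 1 80-100%, 2 50-80%, 3 <50%.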

S. epidermis = experiment: Minimal Effective Concentration (MEC) assay; assay type: cell-based, Staphylococcus epidermidis
Description: (§2) Three antimicrobial polypeptides, which are variants of SEQ ID NO: 1, were tested for antimicrobial activity. A Minimal Effective Concentration assay (MEC, expressed as micrograms/mL) against different microorganisms was performed using the three plectasin mutants, Y40YR, N17R and Y25R following the protocol described in the book of Methods in Molecular Biology, Vol. 78, Antibacterial peptide protocol William M. Shafer, Human Press.

[2] = test system: Staphylococcus aureus, MRSA ST5 (2001); experiment: MIC, NCCLS/CLSI guidelines (Example 5), strain D; assay type: cell-based; conditions: average of two independent experiments
Summary of the method: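 MICs of purified plectasin peptides are measured according to NCCLS/CLSI guidance. Each value averages duplicate independent experiments and is given as a category relative to wild-type: 0 above 100%, 1 80-100%, 2 50-80%, 3 below 50%.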

[3] = test system: Staphylococcus aureus, ATCC 25923; experiment: MIC, NCCLS/CLSI guidelines (Example 5), strain B; assay type: cell-based; conditions: average of two independent experiments
Summary of the method: as §1

[4] = test system: Staphylococcus aureus, ATCC 29737; experiment: MIC, NCCLS/CLSI guidelines (Example 5), strain C; assay type: cell-based; conditions: average of two independent experiments
Summary of the method: as §1

M. luteus [5] = experiment: Minimal Inhibitory Concentration, NCCLS guidelines (Example 4); assay type: cell-based, Micrococcus luteus; conditions: purified peptide
Description: (§3) The Minimal Inhibitory Concentration (MIC, micrograms/mL) was determined to test for their antimicrobial activity following the NCCLS guidelines (Clinical and Laboratory Standards Institute; formerly known as National Committee for Clinical and Laboratory Standards).

[6] = test system: panel of 6 different strains of Staphylococcus aureus; experiment: Average MIC, NCCLS/CLSI guidelines using caMHB (Example 6); assay type: cell-based; conditions: average over 6 S. aureus strains, duplicate; MIC above 32 counted as 64; read after 18-24 hours at 37° C.
Summary of the method: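 MICs were determined by broth dilution per NCCLS/CLSI in caMHB against six S. aureus strains (four MSSA, two MRSA), with peptides at 0.03–32 microgram/mL, read after 18-24 h at 37° C. Each was tested in duplicate and the two results averaged; MICs above 32 micrograms/mL were counted as 64.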

M. luteus [7] = experiment: Minimal Effective Concentration (MEC) assay; assay type: cell-based, Micrococcus luteus
Description: as §2

S. aureus = experiment: Minimal Inhibitory Concentration, NCCLS guidelines (Example 4); assay type: cell-based, Staphylococcus aureus; conditions: purified peptide
Description: as §3

## GFGCNGPWDEDDMQCHNHCKSIKGYKGGYCAKGGFVCKCY (listed as Pseudoplectania nigrella) [wildtype, wildtype plectasin, parent antimicrobial polypeptide, reference compound]
[1]
  MIC, strain A: (8 μg/mL)
[1]; relative to wildtype Plectasin
  Relative MIC, strain A: 1 (80-100% of Plectasin wildtype MIC)
S. epidermis
  MEC against S. epidermis: 0.98 micrograms/mL
[2]
  MIC, strain D: (15 μg/mL)
[2]; relative to wildtype Plectasin
  Relative MIC, strain D: 1 (80-100% of Plectasin wildtype MIC)
[3]
  MIC, strain B: (22 μg/mL)
[3]; relative to wildtype Plectasin
  Relative MIC, strain B: 1 (80-100% of Plectasin wildtype MIC)
[4]
  MIC, strain C: (4 μg/mL)
[4]; relative to wildtype Plectasin
  Relative MIC, strain C: 1 (80-100% of Plectasin wildtype MIC)
M. luteus [5]
  MIC against M. luteus: 32 micrograms/mL
[6]
  Average MIC: 14 micrograms/mL
M. luteus [7]
  MEC against M. luteus: 1.89 micrograms/mL
S. aureus
  MIC against S. aureus: 8 micrograms/mL
